# Measured values reported in US20250034170A1, “SMALL MOLECULE MODULATORS OF GLUCOCEREBROSIDASE ACTIVITY AND USES THEREOF” (Vanqua Bio, Inc., priority 2021, published 2025).
# Molecular target: T1, GCase (Homo sapiens, UniProt P04062)
# T1 construct: endogenous in cells; host or cells: HeLa cells
# T1 sequence (P04062 40-536): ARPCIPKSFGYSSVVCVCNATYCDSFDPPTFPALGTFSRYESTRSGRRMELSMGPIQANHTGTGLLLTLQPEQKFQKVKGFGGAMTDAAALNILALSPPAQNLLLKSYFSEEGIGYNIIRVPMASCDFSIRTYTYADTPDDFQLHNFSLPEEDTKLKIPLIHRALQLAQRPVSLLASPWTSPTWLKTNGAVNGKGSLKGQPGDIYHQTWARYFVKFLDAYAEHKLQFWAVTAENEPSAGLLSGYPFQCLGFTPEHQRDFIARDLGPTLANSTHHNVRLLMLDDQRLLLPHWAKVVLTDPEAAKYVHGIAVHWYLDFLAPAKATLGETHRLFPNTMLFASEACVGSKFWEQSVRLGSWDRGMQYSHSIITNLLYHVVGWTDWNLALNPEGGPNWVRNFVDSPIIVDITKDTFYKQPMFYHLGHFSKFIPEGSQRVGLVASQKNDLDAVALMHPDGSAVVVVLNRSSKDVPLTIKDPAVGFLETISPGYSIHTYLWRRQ
# Test: activation of GCase in a live cell PFB assay in HELA cells
# Format: cell-based
# Conditions: activation of GCase, EC50 ranges
# Procedure: Exemplary compounds were evaluated for activation of GCase in a live cell PFB assay in HELA cells (essentially as described in Ysselstein et al., “LRRK2 kinase activity regulates lysosomal glucocerebrosidase in neurons derived from Parkinson's disease patients” Nature Communications (2019) 10:5570). […] EC50 ranges: A: <10 μM; B: >10-50 μM; C: >50-100 μM; D: >100 μM.
row,EC50 [µM],Structure (SMILES)
1,10 to 50,"FC(F)Cn1ncc2ncc(N3CCC4(CCN(c5ncccc5C(F)(F)F)CC4)C3)nc21 [Compound 151, 2-[1-(2,2-difluoroethyl)-1H-pyrazolo[3,4-b]pyrazin-6-yl]-8-[3-(trifluoromethyl)pyridin-2-yl]-2,8-diazaspiro[4.5]decane]"
2,< 10,"FC(F)Cn1ncc2ncc(N3CCC4(CCN(c5cncc(C(F)(F)F)c5)CC4)C3)nc21 [Compound 153, 2-[1-(2,2-difluoroethyl)-1H-pyrazolo[3,4-b]pyrazin-6-yl]-8-[5-(trifluoromethyl)pyridin-3-yl]-2,8-diazaspiro[4.5]decane]"
3,< 10,"FC(F)Cn1ncc2ncc(N3CCC4(CC3)CCN(c3ccncc3C(F)(F)F)C4)nc21 [Compound 156, 8-[1-(2,2-difluoroethyl)-1H-pyrazolo[3,4-b]pyrazin-6-yl]-2-[3-(trifluoromethyl)pyridin-4-yl]-2,8-diazaspiro[4.5]decane]"
4,> 100,"FC(F)Cn1ncc2ncc(N3CC4(CCCN(c5ccc(C(F)F)nc5)C4)C3)nc21 [Compound 157, 2-[1-(2,2-difluoroethyl)-1H-pyrazolo[3,4-b]pyrazin-6-yl]-6-[6-(difluoromethyl)pyridin-3-yl]-2,6-diazaspiro[3.5]nonane]"
5,> 100,"Cc1nn(CC(F)F)c2nc(N3CC4(CCCN(c5ccc(C(F)F)nc5)C4)C3)cnc12 [Compound 159, 2-[1-(2,2-difluoroethyl)-3-methyl-1H-pyrazolo[3,4-b]pyrazin-6-yl]-6-[6-(difluoromethyl)pyridin-3-yl]-2,6-diazaspiro[3.5]nonane]"
6,10 to 50,"FC(F)Cn1ncc2ncc(N3CCC4(CCN(c5cc(C(F)F)ccn5)CC4)C3)nc21 [Compound 161, 2-[1-(2,2-difluoroethyl)-1H-pyrazolo[3,4-b]pyrazin-6-yl]-8-[4-(difluoromethyl)pyridin-2-yl]-2,8-diazaspiro[4.5]decane]"
7,< 10,"FC(F)c1ccnc(N2CCC3(CC2)CCN(c2cnc4cnn(CC(F)(F)F)c4n2)C3)c1 [Compound 162, 8-[4-(difluoromethyl)pyridin-2-yl]-2-[1-(2,2,2-trifluoroethyl)-1H-pyrazolo[3,4-b]pyrazin-6-yl]-2,8-diazaspiro[4.5]decane]"
8,< 10,"Cc1nn(CC(F)F)c2nc(N3CCC4(CCN(c5cc(C(F)F)ccn5)CC4)C3)cnc12 [Compound 163, 2-[1-(2,2-difluoroethyl)-3-methyl-1H-pyrazolo[3,4-b]pyrazin-6-yl]-8-[4-(difluoromethyl)pyridin-2-yl]-2,8-diazaspiro[4.5]decane]"
9,< 10,"O=C1N(c2cc(C(F)F)ccn2)CCC12CCN(c1cnc3cnn(CC(F)F)c3n1)CC2 [Compound 165, 8-[1-(2,2-difluoroethyl)-1H-pyrazolo[3,4-b]pyrazin-6-yl]-2-[4-(difluoromethyl)pyridin-2-yl]-2,8-diazaspiro[4.5]decan-1-one]"
10,< 10,"O=C1N(c2cc(C(F)F)ccn2)CCC12CCN(c1cnc3cnn(CC(F)(F)F)c3n1)CC2 [Compound 166, 2-[4-(difluoromethyl)pyridin-2-yl]-8-[1-(2,2,2-trifluoroethyl)-1H-pyrazolo[3,4-b]pyrazin-6-yl]-2,8-diazaspiro[4.5]decan-1-one]"
11,10 to 50,"Cc1nn(CC(F)F)c2nc(N3CCC4(CC3)CCN(c3cc(C(F)F)ccn3)C4=O)cnc12 [Compound 167, 8-[1-(2,2-difluoroethyl)-3-methyl-1H-pyrazolo[3,4-b]pyrazin-6-yl]-2-[4-(difluoromethyl)pyridin-2-yl]-2,8-diazaspiro[4.5]decan-1-one]"
12,< 10,"O=C1N(c2cc(C(F)(F)F)ccn2)CCC12CCN(c1cncc(-c3nncs3)n1)CC2 [Compound 169, 8-[6-(1,3,4-thiadiazol-2-yl)pyrazin-2-yl]-2-[4-(trifluoromethyl)pyridin-2-yl]-2,8-diazaspiro[4.5]decan-1-one]"
13,10 to 50,"FC(F)Cn1ncc2ncc(N3CCC4(CCN(c5cccnc5C(F)(F)F)CC4)C3)nc21 [Compound 170, 2-[1-(2,2-difluoroethyl)-1H-pyrazolo[3,4-b]pyrazin-6-yl]-8-[2-(trifluoromethyl)pyridin-3-yl]-2,8-diazaspiro[4.5]decane]"
14,10 to 50,"FC(F)Cn1ncc2ncc(N3CC4(CN(c5cc(C(F)(F)F)ccn5)CCO4)C3)nc21 [Compound 171, 2-[1-(2,2-difluoroethyl)-1H-pyrazolo[3,4-b]pyrazin-6-yl]-8-[4-(trifluoromethyl)pyridin-2-yl]-5-oxa-2,8-diazaspiro[3.5]nonane]"
15,10 to 50,"FC(F)Cn1ncc2ncc(N3CC4(CN(c5ccc(C(F)(F)F)nc5)CCO4)C3)nc21 [Compound 173, 2-[1-(2,2-difluoroethyl)-1H-pyrazolo[3,4-b]pyrazin-6-yl]-8-[6-(trifluoromethyl)pyridin-3-yl]-5-oxa-2,8-diazaspiro[3.5]nonane]"
16,50 to 100,"FC(F)Cn1ncc2ncc(N3CCC4(CN(c5cc(C(F)(F)F)ccn5)CCO4)C3)nc21 (centres unmarked) [Compound 174, 2-[1-(2,2-difluoroethyl)-1H-pyrazolo[3,4-b]pyrazin-6-yl]-9-[4-(trifluoromethyl)pyridin-2-yl]-6-oxa-2,9-diazaspiro[4.5]decane]"
17,> 100,"FC(F)Cn1ncc2ncc(N3CCC4(CN(c5ccc(C(F)(F)F)nc5)CCO4)C3)nc21 (centres unmarked) [Compound 176, 2-[1-(2,2-difluoroethyl)-1H-pyrazolo[3,4-b]pyrazin-6-yl]-9-[6-(trifluoromethyl)pyridin-3-yl]-6-oxa-2,9-diazaspiro[4.5]decane]"

# The next lines start with the compound.
row,Structure (SMILES),EC50 [µM]
1,"FC(F)Cn1ncc2ncc(N3CCC4(CCN(c5cccc(C(F)(F)F)n5)CC4)C3)nc21 [Compound 149, 2-[1-(2,2-difluoroethyl)-1H-pyrazolo[3,4-b]pyrazin-6-yl]-8-[6-(trifluoromethyl)pyridin-2-yl]-2,8-diazaspiro[4.5]decane]",< 10
2,"FC(F)Cn1ncc2ncc(N3CCC4(CCN(c5ccc(C(F)(F)F)cn5)CC4)C3)nc21 [Compound 150, 2-[1-(2,2-difluoroethyl)-1H-pyrazolo[3,4-b]pyrazin-6-yl]-8-[5-(trifluoromethyl)pyridin-2-yl]-2,8-diazaspiro[4.5]decane]",10 to 50
3,"FC(F)Cn1ncc2ncc(N3CCC4(CCN(c5ccc(C(F)(F)F)nc5)CC4)C3)nc21 [Compound 152, 2-[1-(2,2-difluoroethyl)-1H-pyrazolo[3,4-b]pyrazin-6-yl]-8-[6-(trifluoromethyl)pyridin-3-yl]-2,8-diazaspiro[4.5]decane]",< 10
4,"FC(F)Cn1ncc2ncc(N3CCC4(CCN(c5ccnc(C(F)(F)F)c5)C4)CC3)nc21 [Compound 154, 8-[1-(2,2-difluoroethyl)-1H-pyrazolo[3,4-b]pyrazin-6-yl]-2-[2-(trifluoromethyl)pyridin-4-yl]-2,8-diazaspiro[4.5]decane]",< 10
5,"FC(F)Cn1ncc2ncc(N3CCC4(CCN(c5ccnc(C(F)(F)F)c5)CC4)C3)nc21 [Compound 155, 2-[1-(2,2-difluoroethyl)-1H-pyrazolo[3,4-b]pyrazin-6-yl]-8-[2-(trifluoromethyl)pyridin-4-yl]-2,8-diazaspiro[4.5]decane]",< 10
6,"FC(F)c1ccc(N2CCCC3(C2)CN(c2cnc4cnn(CC(F)(F)F)c4n2)C3)cn1 [Compound 158, 6-[6-(difluoromethyl)pyridin-3-yl]-2-[1-(2,2,2-trifluoroethyl)-1H-pyrazolo[3,4-b]pyrazin-6-yl]-2,6-diazaspiro[3.5]nonane]",> 100
7,"FC(F)c1ccc(N2CCCC3(C2)CN(c2cncc(-c4nncs4)n2)C3)cn1 [Compound 160, 6-[6-(difluoromethyl)pyridin-3-yl]-2-[6-(1,3,4-thiadiazol-2-yl)pyrazin-2-yl]-2,6-diazaspiro[3.5]nonane]",10 to 50
8,"FC(F)c1ccnc(N2CCC3(CC2)CCN(c2cncc(-c4nncs4)n2)C3)c1 [Compound 164, 8-[4-(difluoromethyl)pyridin-2-yl]-2-[6-(1,3,4-thiadiazol-2-yl)pyrazin-2-yl]-2,8-diazaspiro[4.5]decane]",10 to 50
9,"Cc1nn(CC(F)F)c2nc(N3CCC4(CC3)CCN(c3cc(C(F)(F)F)ccn3)C4=O)cnc12 [Compound 168, 8-[1-(2,2-difluoroethyl)-3-methyl-1H-pyrazolo[3,4-b]pyrazin-6-yl]-2-[4-(trifluoromethyl)pyridin-2-yl]-2,8-diazaspiro[4.5]decan-1-one]",< 10
10,"FC(F)Cn1ncc2ncc(N3CC4(CN(c5ccc(C(F)(F)F)cn5)CCO4)C3)nc21 [Compound 172, 2-[1-(2,2-difluoroethyl)-1H-pyrazolo[3,4-b]pyrazin-6-yl]-8-[5-(trifluoromethyl)pyridin-2-yl]-5-oxa-2,8-diazaspiro[3.5]nonane]",10 to 50
11,"FC(F)Cn1ncc2ncc(N3CCC4(CN(c5ccc(C(F)(F)F)cn5)CCO4)C3)nc21 (centres unmarked) [Compound 175, 2-[1-(2,2-difluoroethyl)-1H-pyrazolo[3,4-b]pyrazin-6-yl]-9-[5-(trifluoromethyl)pyridin-2-yl]-6-oxa-2,9-diazaspiro[4.5]decane]",50 to 100
12,"FC(F)(F)Cn1ncc2ncc(N3CCC4(CCN(c5cc(C(F)(F)F)ccn5)C4)CC3)nc21 [Compound 177, 8-[1-(2,2,2-trifluoroethyl)-1H-pyrazolo[3,4-b]pyrazin-6-yl]-2-[4-(trifluoromethyl)pyridin-2-yl]-2,8-diazaspiro[4.5]decane]",50 to 100
